Assay results published in ChEMBL document CHEMBL5032511, “Improving Druggability of Novel Diarylpyrimidine NNRTIs by a Fragment-Based Replacement Strategy: From Biphenyl-DAPYs to Heteroaromatic-Biphenyl-DAPYs” (J Med Chem, 2021).

Experiments:
[1] = test system: Human immunodeficiency virus 1; assay: Anti-viral activity against HIV1 harboring RT Y181C mutant infected […] cells assessed as protection against virus-induced cytopathic effect by MTT assay; format: functional, organism-based; details: Human immunodeficiency virus 1, MT4
[2] = Cytotoxicity against mock infected human MT4 cells by MTT assay
[3] = test system: Human immunodeficiency virus 1; assay: Anti-viral activity against HIV1 harboring RT L100I mutant infected […] cells assessed as protection against virus-induced cytopathic effect by MTT assay; format: functional, organism-based; details: Human immunodeficiency virus 1, MT4
[4] = test system: Human immunodeficiency virus 1; assay: Antiviral activity against HIV1 IIIB infected human MT4 cells assessed as protection against virus-induced cytopathic effect by MTT assay; format: functional, organism-based; details: Human immunodeficiency virus 1, IIIB
[5] = Selectivity index, ratio of CC50 for mock infected human MT4 cells to IC50 for HIV1 IIIB infected human MT4 cells
[6] = target: Human immunodeficiency virus type 1 reverse transcriptase (Human immunodeficiency virus 1, UniProt Q72547); assay: Inhibition of recombinant wild-type HIV1 p66/p51 reverse transcriptase assessed as inhibition of [3H][…] incorporation using poly (rA) as templates incubated for 40 mins by spectrofluorometer
[7] = test system: Human immunodeficiency virus 1; assay: Anti-viral activity against HIV1 harboring RT K103N mutant infected […] cells assessed as protection against virus-induced cytopathic effect by MTT assay; format: functional, organism-based; details: Human immunodeficiency virus 1, MT4
[8] = test system: Human immunodeficiency virus 1; assay: Anti-viral activity against HIV1 harboring RT Y188L mutant infected […] cells assessed as protection against virus-induced cytopathic effect by MTT assay; format: functional, organism-based; details: Human immunodeficiency virus 1, MT4
[9] = test system: Human immunodeficiency virus 1; assay: Anti-viral activity against HIV1 harboring RT E138K mutant infected […] cells assessed as protection against virus-induced cytopathic effect by MTT assay; format: functional, organism-based; details: Human immunodeficiency virus 1, MT4

Row | Compound | EC50 [1] [nM] | CC50 [2] [nM] | EC50 [3] [nM] | EC50 [4] [nM] | selectivity ratio [5] | IC50 [6] [nM] | EC50 [7] [nM] | EC50 [8] [nM] | EC50 [9] [nM]
1 | N#Cc1ccc(Nc2nccc(Nc3c(F)cc(-c4ccco4)cc3F)n2)cc1 | 84 | 16600 | 86 | 2.1 | 7910 | 10 | 71 | 2170 | 10
2 | N#Cc1ccc(Nc2nccc(Nc3c(F)cc(-c4cc(F)nc(F)c4)cc3F)n2)cc1 | 476 | 11000 | 898 | 5.6 | 1970 | 13 | 199 |  | 57
3 | Cc1cc(C#Cc2ccccn2)cc(C)c1Oc1ccnc(Nc2ccc(C#N)cc2)n1 |  |  |  | 3 |  |  |  |  | 
4 | N#Cc1ccc(Nc2nccc(Nc3c(F)cc(-c4cncnc4)cc3F)n2)cc1 |  | 2700 | 1790 | 11.9 | 229 | 87 | 326 |  | 137
5 | Cc1cc(C#Cc2ccccc2)cc(C)c1Oc1ccnc(Nc2ccc(C#N)cc2)n1 |  |  |  | 38 |  |  |  |  | 
6 | N#Cc1ccc(Nc2nccc(Nc3c(F)cc(-c4coc5ccccc45)cc3F)n2)cc1 | 2750 | 87000 | 3450 | 44 | 1990 | 28 | 1300 | 6340 | 335
7 | Cc1ccnc2c1NC(=O)c1cccnc1N2C1CC1 [NEVIRAPINE] |  | > 15000 |  |  |  |  |  |  | 288
8 | COc1cc(-c2cc(F)c(Nc3ccnc(Nc4ccc(C#N)cc4)n3)c(F)c2)ccn1 | 389 | 6700 | 645 | 13 | 501 | 30 | 239 |  | 260
9 | N#Cc1ccc(Nc2nccc(Nc3c(F)cc(-c4ccncc4F)cc3F)n2)cc1 | 7 | 3300 | 7.4 | 1.3 | 2570 | 9.1 | 1.9 | 92 | 2.3
10 | N#Cc1ccc(Nc2nccc(Nc3c(F)cc(-c4ccncc4)cc3F)n2)cc1 | 15 |  | 20.4 |  |  | 7.4 | 8 | 417 | 4
11 | O=C1Nc2ccc(Cl)cc2[C@@](C#CC2CC2)(C(F)(F)F)O1 [EFAVIRENZ] |  | > 6330 |  |  |  |  |  | 269 | 7.5
12 | N#Cc1ccc(Nc2nccc(Nc3c(F)cc(-c4cccs4)cc3F)n2)cc1 | 136 | > 308000 | 363 | 4.1 | > 74600 | 5.9 | 102 | 1130 | 11
13 | N#Cc1ccc(Nc2nccc(Nc3c(F)cc(-c4ccc(N)cc4)cc3F)n2)cc1 | 482 | > 303000 | 561 | 9.2 | > 32900 | 37 | 144 | 1180 | 37
14 | Cc1cc(-c2cc(F)c(Nc3ccnc(Nc4ccc(C#N)cc4)n3)c(F)c2)ccn1 | 144 | 3200 | 383 | 4.1 | 777 | 29 | 77.7 | 1090 | 52
15 | N#Cc1ccc(Nc2nccc(Nc3c(F)cc(-c4ccnc(C#N)c4F)cc3F)n2)cc1 | 42 | > 282000 | 80 | 2 | > 143000 | 11 | 14 | 18300 | 11
16 | N#Cc1ccc(Nc2nccc(Nc3c(F)cc(-c4csc5ccccc45)cc3F)n2)cc1 | 6210 | 16000 | 6450 | 124 | 132 | 59 | 5790 | 7480 | 601
17 | N#Cc1ccc(Nc2nccc(Nc3c(F)cc(-c4ccnc(Cl)c4)cc3F)n2)cc1 | 254 | 4200 | 415 | 6.8 | 622 | 14 | 101 | > 1540 | 61
18 | Cc1cc(-c2cc(F)c(Nc3ccnc(Nc4ccc(C#N)cc4)n3)c(F)c2)cc(C)n1 |  | 1200 |  | 56 | 21 | 336 |  |  | 
19 | N#Cc1ccc(Nc2nccc(Nc3c(F)cc(-c4ccoc4)cc3F)n2)cc1 | 114 | 10600 | 100 | 3.2 | 3290 | 10 | 35 | 2180 | 13
20 | N#Cc1ccc(Nc2nccc(Nc3c(F)cc(-c4ccnc(F)c4F)cc3F)n2)cc1 | 21.3 | > 286000 | 63 | 2 | > 147000 | 8.3 | 11.5 | 1640 | 13.5
21 | N#Cc1ccc(Nc2nccc(Nc3c(F)cc(-c4ccnc(Cl)c4Cl)cc3F)n2)cc1 | 73 | 20000 | 325 | 5.5 | 3670 | 16 | 48 | 1640 | 39
22 | N#Cc1ccc(Nc2nccc(Nc3c(F)cc(-c4ccnc(-c5ccnc(Cl)c5)c4)cc3F)n2)cc1 | 779 | 51000 | 1150 | 16.8 | 3070 | 110 | 176 |  | 160
23 | N#Cc1ccc(Nc2nccc(Nc3c(F)cc(-c4cc(Cl)nc(Cl)c4)cc3F)n2)cc1 |  | 5400 |  | 56 | 97 | 96 | 1090 |  | 311
24 | N#Cc1ccc(Nc2nccc(Nc3c(F)cc(-c4cccnc4)cc3F)n2)cc1 | 473 | 242000 | 583 | 7.4 | 32700 | 58 | 223 |  | 149
25 | N#Cc1ccc(Nc2nccc(Nc3c(F)cc(-c4ccsc4)cc3F)n2)cc1 | 212 | 55400 | 301 | 3.9 | 14000 | 11 | 171 | 1040 | 14
26 | N#Cc1ccc(Nc2nccc(Nc3c(F)cc(-c4cn[nH]c4)cc3F)n2)cc1 |  | 3100 |  | 10 | 298 | 43 | 251 |  | 101
